In general, IC50 refers to the concentration needed to halve the response being measured.

Consider 43 compounds from US20260167656A1, “PHOSPHORAMIDATE COMPOUNDS AND USES THEREOF” (ALLORION THERAPEUTICS INC, priority 2022, published 2026).

Assay [1] deals with non-small cell lung cancer cell line H460. Put plainly: In vitro human cancer cell line cytotoxicity (proliferation) assay in H460, CellTiter-Glo, 72 hours. It is filed as cell-based. The settings on record: DMSO condition (no AKR1C3 inhibitor), read-out: CTG H460: Avg IC50 (nM) [Assay Condition: DMSO]. The gist of the method: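 IC50s in nM come from CellTiter-Glo viability read after 72 h of compound exposure. Compounds went in from 10 mM DMSO stocks onto H460 cells, which had been plated at 3×10^3 per well and grown 24 h beforehand at 37 °C, 5% CO2.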
On the technique in general: ATP-based viability assays read luminescence as a measure of living cells.

For assay [2] the test system is unchanged. Description: H460 proliferation assay in the presence of 3 uM ASP9521 (AKR1C3 specific inhibitor). Format: cell-based, human. The conditions noted are these: H460 cells, CellTiter-Glo, 72 hours, in the presence of 3 uM ASP9521 added 4 hours prior to compounds; read-out: CTG H460: Avg IC50 (nM) [Assay Condition: ASP9521]. The gist of the method:
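AKR1C3 blocked with 3 uM ASP9521 given 4 h ahead of test compounds. H460 cells, plated 24 h earlier, were then treated for 72 h at 37 °C in 5% CO2. CellTiter-Glo luminescence gave viability.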

Setting [3] is: Homo sapiens, NCI-H460, 72 h, H460 cells.
Where [4] appears, read: Homo sapiens, NCI-H460, H460 cells.

Each structure is given as a SMILES string.

`O=C1CCCCN1c1cccc(Oc2c([N+](=O)[O-])ccc3c2CCC3OP(=O)(N2CC2)N2CC2)c1` (centres unmarked) [Example 410]: the IC50 in assay [1] (H460 cells) was 10 to 50 nM; in assay [2], 4660 nM.
Take `O=[N+]([O-])c1ccc2c(c1Oc1ccc(-c3ccncc3)cc1)CC[C@H]2OP(=O)(N1CC1)N1CC1` [Example 274]: the IC50 in assay [1] (H460 cells) is 10 to 50 nM; in assay [2], 7430 nM.
Take `CC(OP(=O)(N1CC1C)N1CC1C)c1ccc([N+](=O)[O-])c(Oc2cccc(C(=O)N(C)C)c2)c1` (centres unmarked) [Example 205]: the IC50 in assay [1] (setting [3]) is below 10 nM; in assay [2] it was 184 nM.
With `O=C(c1cc(Oc2c([N+](=O)[O-])ccc3c2CC[C@@H]3OP(=O)(N2CC2)N2CC2)ccc1F)N1CC(F)(F)C1` [Example 258], the IC50 in assay [1] (H460 cells) was below 10 nM; in assay [2], 2060 nM.
For `O=[N+]([O-])c1ccc2c(c1Oc1cccc(-c3cnn(C4CC4)c3)c1)CCC2OP(=O)(N1CC1)N1CC1` (centres unmarked) [Example 96] the same measures were 10 to 50 nM and 5270 nM.
On to `Cn1nc(-c2cccc(Oc3c([N+](=O)[O-])ccc4c3CC[C@@H]4OP(=O)(N3CC3)N3CC3)c2)cc1F` [Example 375], for which the IC50 was below 10 nM in assay [1] (setting [3]) and 2520 nM in assay [2].
For `C[C@H](OP(=O)(N1CC1)N1CC1)c1cc2cc(Oc3cccc(OC(F)(F)F)c3)c([N+](=O)[O-])cc2o1` (single isomer, unassigned) [Example 532], the IC50 in assay [1] (setting [3]) is below 10 nM; in assay [2] it was 1230 nM.
For `O=[N+]([O-])c1ccc2c(c1Oc1ccc(-c3ccccc3)cc1)CCC2OP(=O)(N1CC1)N1CC1` (single isomer, unassigned) [Example 19] the same measures were below 10 nM and 593 nM.
Turning to `O=[N+]([O-])c1ccc2c(c1Oc1cccc(OC3CCCC3)c1)CC[C@H]2OP(=O)(N1CC1)N1CC1` [Example 470], the results for the IC50 in assay [1] (H460 cells) and in assay [2] were below 10 nM and 1150 nM, respectively.
`C[C@@H](OP(=O)(N1CC1)N1CC1)c1cc2cc(Oc3cccc(OC(F)(F)F)c3)c([N+](=O)[O-])cc2o1` (single isomer, unassigned) [Example 531]: the figures for the IC50 in assay [1] (setting [3]) and in assay [2] were below 10 nM and 1430 nM, respectively.
As for `O=[N+]([O-])c1ccc2c(c1Oc1ccc(F)c(OCC3CC3)c1)CC[C@@H]2OP(=O)(N1CC1)N1CC1` [Example 489], the IC50 in assay [1] (setting [3]) was below 10 nM; in assay [2], 1660 nM.
For `O=[N+]([O-])c1ccc2c(c1Oc1ccc(-c3ccc(F)cn3)c(F)c1)CC[C@@H]2OP(=O)(N1CC1)N1CC1` [Example 275] the same measures were below 10 nM and 1350 nM.
For the compound `O=C(c1cccc(Oc2c([N+](=O)[O-])ccc3c2CCC3OP(=O)(N2CC2)N2CC2)c1)N1CCC1` (centres unmarked) [Example 97], the IC50 in assay [1] (setting [3]) was below 10 nM; in assay [2], 497 nM.
Turning to `O=[N+]([O-])c1ccc2c(c1Oc1cccc(-c3cc(F)nn3CCO)c1)CC[C@@H]2OP(=O)(N1CC1)N1CC1` [Example 372], the IC50 is below 10 nM in assay [1] (setting [3]) and 332 nM in assay [2].
With `CC(C)COc1cccc(Oc2c([N+](=O)[O-])ccc3c2CCC3OP(=O)(N2CC2)N2CC2)c1` (centres unmarked) [Example 485], the IC50 in assay [1] (H460 cells) is below 10 nM; in assay [2], 1150 nM.
With `O=C(NC1CC1)c1ccc(Oc2c([N+](=O)[O-])ccc3c2CCC3OP(=O)(N2CC2)N2CC2)cc1` (centres unmarked) [Example 72], the IC50 is 50 to 100 nM in assay [1] (H460 cells) and 1390 nM in assay [2].
With `Cn1cnc(-c2cccc(Oc3c([N+](=O)[O-])ccc4c3CC[C@@H]4OP(=O)(N3CC3)N3CC3)c2)c1` [Example 345], the IC50 was below 10 nM in assay [1] (setting [4]) and 2110 nM in assay [2].
In the case of `CC(OP(=O)(N1CC1)N1CC1)c1cc(Oc2ccc(C(=O)N(C)C)cc2)c([N+](=O)[O-])cc1F` (centres unmarked) [Example 8], the results for the IC50 in assay [1] (setting [3]) and in assay [2] were below 10 nM and 1790 nM, respectively.
As for `O=[N+]([O-])c1cc2c(cc1Oc1ccc(-c3ccccn3)cc1)C(OP(=O)(N1CC1)N1CC1)CC2` (single isomer, unassigned) [Example 188], the half-maximal inhibitory concentration (IC50) is below 10 nM in assay [1] (setting [3]) and 2070 nM in assay [2].
On to `O=[N+]([O-])c1cc2c(cc1Oc1ccc(-c3ccccc3)nc1)[C@H](OP(=O)(N1CC1)N1CC1)CC2` [Example 528], for which the IC50 is below 10 nM in assay [1] (H460 cells) and 880 nM in assay [2].
The corresponding values for `O=C1CCCN1c1cccc(Oc2c([N+](=O)[O-])ccc3c2CCC3OP(=O)(N2CC2)N2CC2)c1` (centres unmarked) [Example 112] are below 10 nM and 243 nM.
`Cc1cnn(-c2ccc(Oc3c([N+](=O)[O-])ccc4c3CCC4OP(=O)(N3CC3)N3CC3)cc2)c1` (centres unmarked) [Example 425]: the half-maximal inhibitory concentration (IC50) in assay [1] (H460 cells) was below 10 nM; in assay [2], 5270 nM.
Turning to `CC(OP(=O)(N1C[C@H]1C)N1C[C@H]1C)c1ccc([N+](=O)[O-])c(Oc2cccc(C(=O)N(C)C)c2)c1` (some centres unmarked) [Example 210], the IC50 is below 10 nM in assay [1] (setting [3]) and 294 nM in assay [2].
`Cn1ncc(F)c1-c1cccc(Oc2c([N+](=O)[O-])ccc3c2CCC3OP(=O)(N2CC2)N2CC2)c1` (centres unmarked) [Example 373]: the IC50 was below 10 nM in assay [1] (H460 cells) and 672 nM in assay [2].
`O=[N+]([O-])c1ccc2c(c1Oc1cccc(-c3cccnc3)c1)CC[C@@H]2OP(=O)(N1CC1)N1CC1` [Example 310]: the IC50 in assay [1] (setting [3]) was below 10 nM; in assay [2], 2010 nM.
Turning to `O=[N+]([O-])c1ccc2c(c1Oc1cccc(OC(F)(F)F)c1)CCC2OP(=O)(N1CC1)N1CC1` (racemic) [Example 447], the IC50 was below 10 nM in assay [1] (H460 cells) and 547 nM in assay [2].
As to `O=[N+]([O-])c1ccc2c(c1Oc1ccc(-n3cccn3)cc1)CCC2OP(=O)(N1CC1)N1CC1` (centres unmarked) [Example 424], the IC50 in assay [1] (H460 cells) is below 10 nM; in assay [2], 779 nM.
Regarding `Cn1c(=O)oc2ccc(Oc3c([N+](=O)[O-])ccc4c3CCC4OP(=O)(N3CC3)N3CC3)cc21` (single isomer, unassigned) [Example 64], the IC50 in assay [1] (setting [3]) is below 10 nM; in assay [2] it was 722 nM.
The corresponding values for `O=C1c2cc(Oc3c([N+](=O)[O-])ccc4c3OCCC4OP(=O)(N3CC3)N3CC3)ccc2CN1C1CC1` (single isomer, unassigned) [Example 138] are below 10 nM and 579 nM.
Regarding `C[C@H](OP(=O)(N1CC1)N1CC1)c1cc2cc(Oc3cccc(C(=O)N4CC(F)(F)C4)c3)c([N+](=O)[O-])cc2o1` [Example 552], the IC50 is 10 to 50 nM in assay [1] (H460 cells) and 5870 nM in assay [2].
Regarding `Cn1cc(-c2ccc(Oc3c([N+](=O)[O-])ccc4c3CCC4OP(=O)(N3CC3)N3CC3)cc2)cn1` (single isomer, unassigned) [Example 59], the results for the IC50 in assay [1] (H460 cells) and in assay [2] were below 10 nM and 1360 nM, respectively.
As to `O=[N+]([O-])c1ccc2c(c1Oc1cccc(OC3CCC3)c1)CC[C@@H]2OP(=O)(N1CC1)N1CC1` [Example 463], the IC50 in assay [1] (H460 cells) was below 10 nM; in assay [2], 478 nM.
Turning to `O=C1c2ccc(Oc3c([N+](=O)[O-])ccc4c3CCC4OP(=O)(N3CC3)N3CC3)cc2CN1C1CC1` (centres unmarked) [Example 56], the results for the IC50 in assay [1] (setting [3]) and in assay [2] were below 10 nM and 447 nM, respectively.
As for `CC(C)Oc1cc(Oc2c([N+](=O)[O-])ccc3c2CCC3OP(=O)(N2CC2)N2CC2)ccc1F` (centres unmarked) [Example 486], the IC50 was below 10 nM in assay [1] (H460 cells) and 967 nM in assay [2].
For the compound `O=[N+]([O-])c1ccc2c(c1Oc1ccc(-c3ccc(O)cn3)cc1)CC[C@@H]2OP(=O)(N1CC1)N1CC1` [Example 290], the IC50 in assay [1] (setting [3]) was below 10 nM; in assay [2], 274 nM.
As to `O=C(c1cc(Oc2c([N+](=O)[O-])ccc3c2CC[C@@H]3OP(=O)(N2CC2)N2CC2)ccc1F)N1CCCC1` [Example 259], the IC50 in assay [1] (H460 cells) was below 10 nM; in assay [2], 1550 nM.
Consider `Cc1nsc(-c2cccc(Oc3c([N+](=O)[O-])ccc4c3CC[C@@H]4OP(=O)(N3CC3)N3CC3)c2)n1` [Example 292, (S)-4-(3-(3-methyl-1,2,4-thiadiazol-5-yl)phenoxy)-5-nitro-2,3-dihydro-1H-inden-1-yl di(aziridin-1-yl)phosphinate], for which the IC50 in assay [1] (setting [4]) is below 10 nM; in assay [2], 1810 nM.
Regarding `Cc1noc(-c2cc(Oc3c([N+](=O)[O-])ccc4c3CC[C@@H]4OP(=O)(N3CC3)N3CC3)ccc2F)n1` [Example 326], the IC50 was below 10 nM in assay [1] (setting [3]) and 1270 nM in assay [2].
With `O=C1CCCCN1c1cccc(Oc2c([N+](=O)[O-])ccc3c2CCC3OP(=O)(N2CC2)N2CC2)c1` (centres unmarked) [Example 108], the IC50 in assay [1] (H460 cells) was below 10 nM; in assay [2], 1710 nM.
Regarding `O=[N+]([O-])c1cc2c(cc1Oc1ccc(-c3ccccc3)cc1)C(OP(=O)(N1CC1)N1CC1)CC2` (single isomer, unassigned) [Example 152], the IC50 in assay [1] (setting [3]) is below 10 nM; in assay [2] it was 1400 nM.
Take `O=[N+]([O-])c1ccc2c(c1Oc1cccc(C(F)(F)F)c1)CCC2OP(=O)(N1CC1)N1CC1` (centres unmarked) [Example 308]: the IC50 was below 10 nM in assay [1] (H460 cells) and 357 nM in assay [2].
Regarding `O=[N+]([O-])c1cc2c(cc1Oc1ccc(-c3cccnc3)cc1)C(OP(=O)(N1CC1)N1CC1)CC2` (centres unmarked) [Example 187], the IC50 in assay [1] (setting [3]) was 10 to 50 nM; in assay [2] it was above 10000 nM.
Take `O=C(c1ccc(Oc2c([N+](=O)[O-])ccc3c2CCC3OP(=O)(N2CC2)N2CC2)cc1)N1CCOCC1` (centres unmarked) [Example 35]: the IC50 in assay [1] (H460 cells) was below 10 nM; in assay [2], 472 nM.
